Measurements: US8148404B2, “Modulators of CB1 receptors” (7TM Pharma A/S, priority 2006, dated 2012)

Each molecule was assayed against T1, human CB1 receptor (Homo sapiens, UniProt P21554) (assay: Cannabinoid Receptor-1 functional assay: inhibition of CP55940-induced [35S]GTPγS binding to membranes of CHO-K1 cells expressing human CB1). Details: 3 nM CP55940, [35S]GTPγS SPA, hCB1 membranes; read-out: IC50 value for antagonizing a CB1 receptor agonist.
T1 construct: expressed in transfected cells; membranes used
Assay type: biochemical
Source text: Transfection and Cell Culture—The cDNA encoding the human CB1 (Cannabinoid Receptor-1) receptor (GenBank accession number NM_016083) was cloned from a human adipose tissue cDNA library and cloned into the eukaryotic expression vector pcDNA3.1 (Invitrogen).
Chinese Hamster Ovary cells (CHO-K1) stably expressing recombinant human CB1 were generated by transfecting the plasmid containing the coding sequence of the human CB1 receptor in CHO-K1 cells, using lipofectamin, according to the manufacturer instructions. Resistant clones were selected in the presence of 600 μg/ml G418 (Life technology). Stably transfected CHO-K1 cells were maintained in Ham's F-12 culture medium (Invitrogen), supplemented with 10% fetal calf serum (Invitrogen), 100 U/ml penicillin, 100 μg/ml streptomycin (Life Technology), and 600 μg/ml G418.
Functional activities of the above examples of compounds of the invention were assessed in vitro by measuring their ability to inhibit CP55940-induced [^35S]GTPγS binding to membranes prepared from CHO-K1 cells expressing the human CB1 receptor (described in Transfection and Cell Culture). CP55940 is a well known non-selective CB1 and CB2 receptor agonist (e.g Felder et al., 1995, Molecular Pharmacology, (48) 443-50). Membranes were prepared by a standard procedure. Briefly, cells were harvested using 10 mM EDTA and collected by centrifugation. Pelleted cells were homogenized in ice-cold 20 mM Hepes (pH 7.4), 10 mM EDTA and protease inhibitors (Complete protease inhibitor cocktail tablet, Roche) using an Ultra Turrax Homogenizer. The homogenate was centrifuged at 14 000 rpm for 45 min. at 4° C. The resultant pellet was resuspended in the same buffer but with only 0.1 mM EDTA and was again centrifuged at 14 000 rpm for 45 min. at 4° C. The resulting pellet (membranes) was resuspended in 20 mM Hepes (pH 7.4), 0.1 mM EDTA, 2 mM MgCl2 and protease inhibitors and protein concentration was determined by Micro BCA Protein Assay Reagent Kit (Pierce Biotechnology) according to the manufacturer instructions. The [^35S]GTPγS SPA (Scintillation Proximity Assay) binding assay was performed by incubating 5 μg/well hCB1-membranes with 1 nM [^35S]GTPγS (Perkin Elmer—NEG 030H) in the presence of 3 nM of CP55940 and various concentrations of the test compounds at room temperature for 1 hr in 96-well microtiter plates. 0.4 mg/well SPA beads (PVT-WGA; RPNQ0001 Amersham Pharmacia Biotech) were then added and the incubation continued for further 30 min. on an orbital shaker. The assay buffer contained 50 mM HEPES (pH 7.5), 50 mM NaCl, 2.5 mM MgCl2, 0.1% BSA, 1 μM GDP and 100 μg/ml Saponin. Microtiter plates were centrifuged at 1500 rpm for 5 min. and radioactivity was read immediately using a Topcounter (PerkinElmer Life Sciences). Data were analyzed and IC50 values determined by non-linear regression using the Prism software (GraphPad Software, San Diego).

T1 sequence (P21554 whole entry): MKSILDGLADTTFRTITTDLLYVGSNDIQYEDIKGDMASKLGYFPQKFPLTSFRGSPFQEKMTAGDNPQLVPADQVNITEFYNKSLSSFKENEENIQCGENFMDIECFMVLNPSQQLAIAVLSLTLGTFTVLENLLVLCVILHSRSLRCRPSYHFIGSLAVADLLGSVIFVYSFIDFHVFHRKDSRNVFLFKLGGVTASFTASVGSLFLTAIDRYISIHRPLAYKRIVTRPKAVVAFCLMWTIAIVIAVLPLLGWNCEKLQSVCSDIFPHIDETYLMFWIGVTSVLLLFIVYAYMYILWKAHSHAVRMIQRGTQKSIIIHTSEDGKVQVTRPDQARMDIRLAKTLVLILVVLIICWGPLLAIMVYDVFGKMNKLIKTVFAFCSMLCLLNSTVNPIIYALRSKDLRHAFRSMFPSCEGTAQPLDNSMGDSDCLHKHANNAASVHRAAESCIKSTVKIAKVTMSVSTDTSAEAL

First: O=C(O)Cc1c(C(=O)N2CCC(c3cccs3)CC2)nn(-c2ccccc2Cl)c1-c1ccc(Cl)cc1 [[1.23], [5-(4-Chloro-phenyl)-1-(2-chloro-phenyl)-3-(4-thiophen-2-yl-piperidine-1-carbonyl)-1H-pyrazol-4-yl]-acetic acid]
Second: O=C(O)Cc1c(C(=O)N2CCC(c3ccncc3)CC2)nn(-c2ccccc2Cl)c1-c1ccc(Cl)cc1 [[1.32], [1-(2-Chloro-phenyl)-5-(4-chloro-phenyl)-3-(3,4,5,6-tetrahydro-2H-[4,4′]bipyridinyl-1-carbonyl)-1H-pyrazol-4-yl}-acetic acid]
The IC50 of the first is lower: under 300 nM for the first, 300 to 3000 nM for the second.

`O=C(O)Cc1c(C(=O)N2CCC(O)(c3csc(Br)n3)CC2)nn(-c2ccccc2Cl)c1-c1ccc(Cl)cc1` [[1.24], [3-[4-(2-Bromo-thiazol-4-yl)-4-hydroxy-piperidine-1-carbonyl]-5-(4-chloro-phenyl)-1-(2-chloro-phenyl)-1H-pyrazol-4-yl]-acetic acid] and `O=C(O)Cc1c(C(=O)N2CCC(O)(c3cccc(F)c3F)CC2)nn(-c2ccccc2Cl)c1-c1ccc(Cl)cc1` [[1.25], {5-(4-Chloro-phenyl)-1-(2-chloro-phenyl)-3-[4-(2,3-difluoro-phenyl)-4-hydroxy-piperidine-1-carbonyl]-1H-pyrazol-4yl}-acetic acid] cannot be ordered by IC50: under 300 nM for the first, under 300 nM for the second.

`O=C(O)Cc1c(C(=O)N2CCC(c3ccc(F)cc3F)CC2)nn(-c2ccccc2Cl)c1-c1ccc(Cl)cc1` [[1.26], {1-(2-Chloro-phenyl)-5-(4-chloro-phenyl)-3-[4-(2,4-difluoro-phenyl)-piperidine-1-carbonyl]-1H-pyrazol-4-yl}-acetic acid] and `O=C(O)Cc1c(C(=O)N2CCC(c3ccccc3F)CC2)nn(-c2ccccc2Cl)c1-c1ccc(Cl)cc1` [[1.27], {1-(2-Chloro-phenyl)-5-(4-chloro-phenyl)-3-[4-(2-fluoro-phenyl)-piperidine-1-carbonyl]-1H-pyrazol-4-yl}-acetic acid] cannot be ordered by IC50: under 300 nM for the first, under 300 nM for the second.

`O=C(O)Cc1c(C(=O)N2CCC(c3ccc(C(F)(F)F)cc3)CC2)nn(-c2ccccc2Cl)c1-c1ccc(Cl)cc1` [[1.28], {1-(2-Chloro-phenyl)-5-(4-chloro-phenyl)-3-[4-(4-trifluoromethyl-phenyl)-piperidine-1-carbonyl]-1H-pyrazol-4-yl}-acetic acid] and `O=C(O)Cc1c(C(=O)N2CCC(c3ccc(C(F)(F)F)cc3)C2)nn(-c2ccccc2Cl)c1-c1ccc(Cl)cc1` (stereo not shown) [[1.39], {1-(2-Chloro-phenyl)-5-(4-chloro-phenyl)-3-[3-(4-trifluoromethyl-phenyl)-pyrrolidine-1-carbonyl]-1H-pyrazol-4-yl}-acetic acid] cannot be ordered by IC50: under 300 nM for the first, under 300 nM for the second.

`O=C(O)Cc1c(C(=O)N2CCC(c3ccc(Cl)cc3)CC2)nn(-c2ccccc2Cl)c1-c1ccc(Cl)cc1` [[1.29], {1-(2-Chloro-phenyl)-5-(4-chloro-phenyl)-3-[4-(4-chloro-phenyl)-piperidine-1-carbonyl]-1H-pyrazol-4-yl}-acetic acid] and `O=C(O)Cc1c(C(=O)N2CCC(c3cccc(Cl)c3)CC2)nn(-c2ccccc2Cl)c1-c1ccc(Cl)cc1` [[1.31], {1-(2-Chloro-phenyl)-5-(4-chloro-phenyl)-3-[4-(3-chloro-phenyl)-piperidine-1-carbonyl]-1H-pyrazol-4-yl}-acetic acid] cannot be ordered by IC50: under 300 nM for the first, under 300 nM for the second.

Compared with `O=C(O)Cc1c(C(=O)N2CCC(c3cccc(C(=O)O)c3)CC2)nn(-c2ccccc2Cl)c1-c1ccc(Cl)cc1` [[1.30], 3-{1-[4-Carboxymethyl-1-(2-chloro-phenyl)-5-(4-chloro-phenyl)-1H-pyrazole-3-carbonyl]-piperidin-4-yl}-benzoic acid], `N#Cc1cccc(C2CCN(C(=O)c3nn(-c4ccccc4Cl)c(-c4ccc(Cl)cc4)c3CC(=O)O)CC2)c1` [[1.34], {1-(2-Chloro-phenyl)-5-(4-chloro-phenyl)-3-[4-(3-cyano-phenyl)-piperidine-1-carbonyl]-1H-pyrazol-4-yl}-acetic acid] is lower in IC50: 3000 to 10000 nM for the first, under 300 nM for the second.

`O=C(O)Cc1c(C(=O)N2CCC(c3ccccc3)CC2)nn(-c2ccccc2Cl)c1-c1ccc(Cl)cc1` [[1.33], [1-(2-Chloro-phenyl)-5-(4-chloro-phenyl)-3-(4-phenyl-piperidine-1-carbonyl)-1H-pyrazol-4-yl]-acetic acid] and `COc1cccc(C2CCN(C(=O)c3nn(-c4ccccc4Cl)c(-c4ccc(Cl)cc4)c3CC(=O)O)CC2)c1` [[1.37], {1-(2-Chloro-phenyl)-5-(4-chloro-phenyl)-3-[4-(3-methoxy-phenyl)-piperidine-1-carbonyl]-1H-pyrazol-4-yl}-acetic acid] cannot be ordered by IC50: under 300 nM for the first, under 300 nM for the second.

`O=C(O)Cc1c(C(=O)N2CCC(c3cc(Cl)cc(Cl)c3)CC2)nn(-c2ccccc2Cl)c1-c1ccc(Cl)cc1` [[1.35], {1-(2-Chloro-phenyl)-5-(4-chloro-phenyl)-3-[4-(3,5-dichloro-phenyl)-piperidine-1-carbonyl]-1H-pyrazol-4-yl}-acetic acid] and `O=C(O)Cc1c(C(=O)N2CCC(c3cc(F)cc(F)c3)CC2)nn(-c2ccccc2Cl)c1-c1ccc(Cl)cc1` [[1.36], {1-(2-Chloro-phenyl)-5-(4-chloro-phenyl)-3-[4-(3,5-difluoro-phenyl)-piperidine-1-carbonyl]-1H-pyrazol-4-yl}-acetic acid] cannot be ordered by IC50: under 300 nM for the first, under 300 nM for the second.

`O=C(O)Cc1c(C(=O)N2CCCC2c2ccc(C(F)(F)F)cc2)nn(-c2ccccc2Cl)c1-c1ccc(Cl)cc1` (stereo not shown) [[1.38], {1-(2-Chloro-phenyl)-5-(4-chloro-phenyl)-3-[2-(4-trifluoromethyl-phenyl)-pyrrolidine-1-carbonyl]-1H-pyrazol-4-yl}-acetic acid] and `O=C(O)Cc1c(C(=O)N2CCC(c3cccc(C(F)(F)F)c3)CC2)nn(-c2ccccc2Cl)c1-c1ccc(Cl)cc1` [[1.40], {1-(2-Chloro-phenyl)-5-(4-chloro-phenyl)-3-[4-(3-trifluoromethyl-phenyl)-piperidine-1-carbonyl]-1H-pyrazol-4-yl}-acetic acid] cannot be ordered by IC50: under 300 nM for the first, under 300 nM for the second.

`COC[C@@H]1CCCN1C(=O)c1nn(-c2ccccc2Cl)c(-c2ccc(Cl)cc2)c1CC(=O)O` [[1.41], [1-(2-Chloro-phenyl)-5-(4-chloro-phenyl)-3-((S)-2-methoxymethyl-pyrrolidine-1-carbonyl)-1H-pyrazol-4-yl]-acetic acid] and `O=C(O)Cc1c(C(=O)N2CC[C@H](c3ccccc3)[C@@H](O)C2)nn(-c2ccccc2Cl)c1-c1ccc(Cl)cc1` [[1.44], [1-(2-Chloro-phenyl)-5-(4-chloro-phenyl)-3-((3R,4R)-3-hydroxy-4-phenyl-piperidine-1-carbonyl)-1H-pyrazol-4-yl]-acetic acid] fall in the same range of IC50: 300 to 3000 nM for the first, 300 to 3000 nM for the second.

`O=C(O)Cc1c(C(=O)N2CCC(O)(c3ccc(F)c(C(F)(F)F)c3)CC2)nn(-c2ccccc2Cl)c1-c1ccc(Cl)cc1` [[1.42], {1-(2-Chloro-phenyl)-5-(4-chloro-phenyl)-3-[4-(4-fluoro-3-trifluoromethyl-phenyl)-4-hydroxy-piperidine-1-carbonyl]-1H-pyrazol-4-yl}-acetic acid] and `O=C(O)Cc1c(C(=O)N2CCC(O)(c3ccc(F)c(Cl)c3)CC2)nn(-c2ccccc2Cl)c1-c1ccc(Cl)cc1` [[1.43], [3-[4-(3-Chloro-4-fluoro-phenyl)-4-hydroxy-piperidine-1-carbonyl]-1-(2-chloro-phenyl)-5-(4-chloro-phenyl)-1H-pyrazol-4-yl]-acetic acid] cannot be ordered by IC50: under 300 nM for the first, under 300 nM for the second.
